From ChEMBL document CHEMBL1221262, “Synthesis and antituberculosis activity of new fatty acid amides” (2010)
≈ marks a conversion by molar mass, not a printed value.

system: Mycobacterium tuberculosis; assay: Antitubercular activity against Mycobacterium tuberculosis H37Rv after 7 days by resazurin microtiter assay; type: functional; details: 168 h

Compound | MIC [µg/mL]
CCCCC/C=C\C/C=C\CCCCCCCC(=O)N[C@@H](C)c1ccccc1 | 50 (≈ 130 µM)
CCCCCCCCCCCCCCCC(=O)N[C@H](C)c1ccccc1 | > 100
CCCCCCCC/C=C\CCCCCCCC(=O)N1CCCCC1 | 50 (≈ 143 µM)
CCCCCC[C@@H](O)C/C=C\CCCCCCCC(=O)N[C@H](C)c1ccccc1 | 100 (≈ 249 µM)
CCCCCCCC/C=C\CCCCCCCC(=O)NCCO [OLEOYLETHANOLAMIDE] | 25 (≈ 76.8 µM)
CCCCCCCC/C=C\CCCCCCCC(=O)N1CCOCC1 | 25 (≈ 71.1 µM)
CCCCCCCCCCCCCCCCCC(=O)N[C@H](C)c1ccccc1 | > 100
CCCCCC[C@@H](O)C/C=C\CCCCCCCC(=O)N[C@@H](C)c1ccccc1 | 100 (≈ 249 µM)
CCCCCCCC/C=C\CCCCCCCC(=O)N1CCCC1 | 25 (≈ 74.5 µM)
CCCCCC[C@@H](O)C/C=C\CCCCCCCC(=O)NCc1ccccc1 | 25 (≈ 64.5 µM)
CCCCC/C=C\C/C=C\CCCCCCCC(=O)N1CCCC1 | 12.5 (≈ 37.5 µM)
CCCCCCCCCCCCCCCC(=O)N1CCCCC1 | 25 (≈ 77.3 µM)
CCCCCCCCCCCCCCCC(=O)NCCO [PALMIDROL] | > 100
CCCCCC[C@@H](O)C/C=C\CCCCCCCC(=O)N1CCOCC1 | 50 (≈ 136 µM)
CCCCCCCCCCCCCCCCCC(=O)N[C@@H](C)c1ccccc1 | > 100
CCCCC/C=C\C/C=C\CCCCCCCC(=O)N[C@H](C)c1ccccc1 | 100 (≈ 261 µM)
CCCCCCCCCCCCCCCC(=O)N[C@@H](C)c1ccccc1 | > 100
CCCCCC[C@@H](O)C/C=C\CCCCCCCC(=O)N1CCCC1 | 12.5 (≈ 35.6 µM)
CCCCCCCCCCCCCCCC(=O)N1CCCC1 | 25 (≈ 80.8 µM)
